Source: patent US8613927B2, “High affinity human antibodies to human nerve growth factor” (Regeneron Pharmaceuticals, Inc., priority 2007, dated 2013)

How the values were obtained:
[1] = tested on: circulating levels of neurotrophin-3 (NT-3); test: Serum NT-3 sandwich ELISA, mice of post incision pain model; assay type: in vivo, mouse; details: day 4, 25 mg/kg i.p., mean±std dev, limit of detection ~40 pg/ml
Description: On day 4, after the behavioral tests from post incision pain model were completed, the mice's sera were collected and analyzed for circulating levels of neurotrophin-3 (NT-3) using a sandwich ELISA. The limit of detection (˜40 pg/ml) was defined as two standard deviations (2σ) above background with a minimum of five NT-3 standards to define the response to concentration curve.

C57BL/6 male mice = test: Seltzer model of neuropathic pain, Hargreaves' test; assay type: in vivo, mouse
Description: Neuropathic pain. The mouse Seltzer model of neuropathic pain (Malmberg et al. (1998) Pain 76:215-222) was used with C57BL/6 male mice, in which a partial nerve injury was produced by tying a tight ligature with a 7-0 silk suture around approximately ⅓ to ½ the diameter of the sciatic nerve of one single thigh per mouse. Post-surgery, the mice were allowed to recover for at least two days and then they were studied for several weeks post-surgery for thermal hyperalgesia in the Hargreaves' test. Controls were sham-operated mice in which the sciatic nerve was exposed and elevated but not tied. Following surgery, the mice were tested at day […] and at day 7 post-surgery to confirm that the thermal hyperalgesia had developed.
Following the Seltzer surgery, mice were tested at days 5 and 7 post-surgery to confirm that the thermal hyperalgesia had developed.

C57BL/6 mice = test: Post-operative incision pain model, mechanical allodynia in von Frey test; assay type: in vivo, mouse; details: Table 17
Protocol: Thermal hyperalgesia was studied in the Hargreaves' test and mechanical allodynia was tested in the von Frey test. In this latter test, mice were tested after being acclimated for 2-3 hours for 4 days in an apparatus with a wire mesh floor. The test was performed by applying, in ascending order, a series of von Frey hairs through the wire mesh onto the plantar surface of the hind paw with the incision. A response was considered positive if the paw was raised from the platform in response to application of the filament. Starting from the thinnest hair, each von Frey filament was applied up to five times until a response was observed.

[2] = biological target: Human NGF binding to human p75-hFc (Homo sapiens, UniProt P01138, DEL136-138/DEL208-209); test: BIACORE receptor blocking assay, free NGF bound to p75-hFc; details: percentage free NGF bound; NGF 10-25 nM with molar excess of antibody; NGF alone = 100%
Description: (§1) To identify blocking antibodies, a receptor blocking assay was designed using a BIACORE™ 3000 instrument. Recombinant human TrkA-hFc and human p75-hFc proteins were amine-coupled to a CM5 chip to a density of about 5000-6000 RU.

[3] = biological target: Human NGF binding to human TrkA-hFc (Homo sapiens, UniProt P01138, DEL136-138/DEL208-209); test: BIACORE receptor blocking assay, free NGF bound to TrkA-hFc; details: percentage free NGF bound; NGF 10-25 nM with molar excess of antibody; NGF alone = 100%
Description: as §1

Sequence of Human NGF binding to human p75-hFc (P01138 with tags, fused parts or gaps DEL136-138/DEL208-209): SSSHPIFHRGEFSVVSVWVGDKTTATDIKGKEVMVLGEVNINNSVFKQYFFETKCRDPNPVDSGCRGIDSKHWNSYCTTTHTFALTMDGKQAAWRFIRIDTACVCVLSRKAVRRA
Sequence of Human NGF binding to human TrkA-hFc (P01138 with tags, fused parts or gaps DEL136-138/DEL208-209): as above

“REGN475: HCVR/LCVR SEQ ID NO:108/110 and mutant hIgG4 SEQ ID NO:543” was tested, and the “Serum NT-3” value [1] was “not detected”, the pain relief (C57BL/6 male mice; 50 mg/kg s.c. or i.p. at day 7 post-surgery, p<0.001-0.05) was “Significant pain relief was observed” and the “mean percent change from Hargreaves baseline” value (shortened to “mean percent change”) (C57BL/6 male mice; Table 25, 50 mg/kg s.c. at day 7, day 5 after surgery) was −55.2 ± 3.5%. The “mean percent change” value (C57BL/6 male mice; Table 25, 50 mg/kg s.c. at day 7, day 7) was −50.9 ± 4.3%, the “mean percent change” value (C57BL/6 male mice; Table 25, 50 mg/kg s.c. at day 7, day 8) was 10.3 ± 14.1% and the “mean percent change” value (C57BL/6 male mice; Table 25, 50 mg/kg s.c. at day 7, day 9) was 8.2 ± 7.2%. For the same molecule, the “mean percent change” value (C57BL/6 male mice; Table 25, 50 mg/kg s.c. at day 7, day 12) was −20.1 ± 4.3%, the “mean percent change” value (C57BL/6 male mice; Table 25, 50 mg/kg s.c. at day 7, day 15) was −14.1 ± 6.1% and the “mean percent change” value (C57BL/6 male mice; Table 25, 50 mg/kg s.c. at day 7, day 19) was 3.0 ± 10.9%. The “mean percent change” value (C57BL/6 male mice; Table 25, 50 mg/kg s.c. at day 7, day 22) was −13.7 ± 13.4%, the “mean percent change” value (C57BL/6 male mice; Table 25, 50 mg/kg s.c. at day 7 post-surgery, Baseline) was 0.0 ± 0.0% and the “mean percent change” value (C57BL/6 male mice; Table 26, 50 mg/kg i.p. at day 7, day 5 after surgery) was −58.7 ± 2.3%. For the same molecule, the “mean percent change” value (C57BL/6 male mice; Table 26, 50 mg/kg i.p. at day 7, day 7) was −61.7 ± 2.7%, the “mean percent change” value (C57BL/6 male mice; Table 26, 50 mg/kg i.p. at day 7, day 8) was −8.2 ± 16.1% and the “mean percent change” value (C57BL/6 male mice; Table 26, 50 mg/kg i.p. at day 7, day 9) was −7.9 ± 9.6%. For the same molecule, the “mean percent change” value (C57BL/6 male mice; Table 26, 50 mg/kg i.p. at day 7, day 12) was −0.1 ± 22.8%, the “mean percent change” value (C57BL/6 male mice; Table 26, 50 mg/kg i.p. at day 7, day 15) was −10.8 ± 18.0% and the “mean percent change” value (C57BL/6 male mice; Table 26, 50 mg/kg i.p. at day 7 post-surgery, Baseline) was 0.0 ± 0.0%. The “Paw Withdrawal Threshold” value (C57BL/6 mice; 25 mg/kg i.p. on day 1 post-surgery, Baseline) was 1.286 ± 0.074 g, the “Paw Withdrawal Threshold” value (C57BL/6 mice; 25 mg/kg i.p., 5 hr after treatment) was 0.034 ± 0.009 g and the “Paw Withdrawal Threshold” value (C57BL/6 mice; 25 mg/kg i.p., 22 hr after treatment) was 0.714 ± 0.074 g. For the same molecule, the “Paw Withdrawal Threshold” value (C57BL/6 mice; 25 mg/kg i.p., 45 hr after treatment) was 1.086 ± 0.184 g, the “Paw Withdrawal Threshold” value (C57BL/6 mice; 25 mg/kg i.p., 70 hr after treatment) was 1.571 ± 0.437 g and the “Paw Withdrawal Threshold” value (C57BL/6 mice; 25 mg/kg i.p., Day 1 (post-surgery, before injection)) was 0.010 ± 0.002 g.

B1: p75-hFc: soluble receptorbody: extracellular domain of human p75 fused with Fc portion of human IgG1 (protein)
chain: KEACPTGLYTHSGECCKACNLGEGVAQPCGANQTVCEPCLDSVTFSDVVSATEPCKPCTECVGLQSMSAPCVEADDAVCRCAYGYYQDETTGRCEACRVCEAGSGLVFSCQDKQNTVCEECPDGTYSDEANHVDPCLPCTVCEDTERQLRECTRWADAECEEIPGRWITRSTPPEGSDSTAPSTQEPEAPPEQDLIASTVAGVVTTVMGSSQPVVTRGTTDN
modifications: left off: a dimerising Fc or GST
notes: soluble receptorbody: extracellular domain of human p75 fused with Fc portion of human IgG1
For B1, the “% Binding p75-hFc” value [2] was 5% and the “% Binding TrkA-hFc” value [3] was 3%.

B2: TrkA-hFc: soluble receptorbody: extracellular domain of human TrkA fused with Fc portion of human IgG1 (protein)
chain: AAPCPDACCPHGSSGLRCTRDGALDSLHHLPGAENLTELYIENQQHLQHLELRDLRGLGELRNLTIVKSGLRFVAPDAFHFTPRLSRLNLSFNALESLSWKTVQGLSLQELVLSGNPLHCSCALRWLQRWEEEGLGGVPEQKLQCHGQGPLAHMPNASCGVPTLKVQVPNASVDVGDDVLLRCQVEGRGLEQAGWILTELEQSATVMKSGGLPSLGLTLANVTSDLNRKNVTCWAENDVGRAEVSVQVNVSFPASVQLHTAVEMHHWCIPFSVDGQPAPSLRWLFNGSVLNETSFIFTEFLEPAANETVRHGCLRLNQPTHVNNGNYTLLAANPFGQASASIMAAFMDNPFEFNPEDPIPVSFSPVDTNSTSGDPVEKKDETPFGVSVAVG
modifications: left off: a dimerising Fc or GST
notes: soluble receptorbody: extracellular domain of human TrkA fused with Fc portion of human IgG1
In the case of B2, the “% Binding p75-hFc” value [2] is reported as 15% and the “% Binding TrkA-hFc” value [3] is reported as 10%.
